Laboratory results as given in PubChem BioAssay (NCI).
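The compound was tested at five concentrations on cells cultured in 96-well plates, with a 48-hour exposure period. GI50 is the concentration that inhibits growth by half. The concentration for full growth arrest is given as TGI.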

Tests used:
Test in all cases: NCI anticancer screen, dose series, 48 h
EKVX NSCLC = test system: EKVX NSCLC
HS 578T breast = test system: HS 578T breast
K-562 leukemia = test system: K-562 leukemia
NCI-H226 lung = test system: NCI-H226 lung
OVCAR-5 ovarian = test system: OVCAR-5 ovarian
SK-MEL-2 melanoma = test system: SK-MEL-2 melanoma
UO-31 renal = test system: UO-31 renal

Row | SMILES | GI50 (EKVX NSCLC) [µM] | TGI (EKVX NSCLC) [µM] | GI50 (HS 578T breast) [µM] | TGI (HS 578T breast) [µM] | GI50 (K-562 leukemia) [µM] | TGI (K-562 leukemia) [µM] | GI50 (NCI-H226 lung) [µM] | TGI (NCI-H226 lung) [µM] | GI50 (OVCAR-5 ovarian) [µM] | TGI (OVCAR-5 ovarian) [µM] | GI50 (SK-MEL-2 melanoma) [µM] | TGI (SK-MEL-2 melanoma) [µM] | GI50 (UO-31 renal) [µM] | TGI (UO-31 renal) [µM]
1 | COc1ccc(-c2n[nH]nc2-c2csc3ccccc23)cc1OC | 3.42 | > 100 | 2.25 | 10.6 | 0.516 | > 100 | 13.2 | 74.6 | 7.91 | > 100 | 1.44 | 7.65 | 2.78 | 20.8
2 | COCCOC(=O)C1=C(C)NC2=C(C(=O)CC(c3ccccc3OC)C2)C1c1cccc(O)c1 (stereo unspecified) | 14.4 | > 100 | 2.04 | > 26.2 | 7.97 | > 85.4 | 8.64 | 35.7 | 23.3 | > 100 | 10.1 | 26.7 | 3.62 | 45.8
3 | CCC(Sc1nnc2c3ccccc3n(CC)c2n1)C(=O)Nc1ccccc1OC (stereo unspecified) | 1.08 | > 30.1 | > 100 | > 100 | > 100 | > 100 | 53.6 | > 100 | 1.94 | 11.7 | > 100 | > 100 | 2.12 | 6.65
4 | O=C1OC(c2ccc(O)c(-c3ccccc3)c2)(c2ccc(O)c(-c3ccccc3)c2)c2c(Cl)c(Cl)c(Cl)c(Cl)c21 |  | > 100 |  | > 100 |  | > 100 |  | > 100 |  | > 100 |  | > 100 |  | > 100
5 | O=C(Nc1cc(C(F)(F)F)ccc1F)Nc1n[nH]c2ccccc12 | > 100 | > 100 | > 100 | > 100 | > 100 | > 100 | > 100 | > 100 | > 100 | > 100 | > 100 | > 100 | > 100 | > 100
6 | C=CC1CC12C(=O)C1OC2(C)C2C(=O)c3c(ccc4c3ccc3ccccc34)C(=O)C12 (stereo unspecified) | 78.6 | > 100 | 68.1 | > 100 | 26.1 | > 100 | 54.1 | > 100 | > 100 | > 100 | > 100 | > 100 | > 100 | > 100
7 | O=C(O)C1C2CC3C(OC(=O)C31)C2Br (stereo unspecified) |  | > 100 |  | > 100 |  | > 88.9 |  | > 100 |  | > 100 |  | > 100 |  | > 100
8 | CCc1c2c(nc3cc4c(cc13)OCO4)-c1cc3c(c(=O)n1C2)COC(=O)[C@@]3(CC)OC(=O)CN | 0.0321 | > 100 | 0.13 |  | < 0.01 | 5.65 | < 0.01 | < 0.01 | < 0.01 | 0.417 | 0.0954 | 0.998 | < 0.01 | 0.0794
9 | CCCCCCCCCCCCCCCc1cc(O)ccc1N | > 50.6 | > 100 | 17 | 99.4 | 10.7 | > 38 | 8.38 | > 49.2 | 28 | > 100 | > 100 | > 100 | 0.685 | 9.36
